Test system: 922993-354-T-J3-PDC complex spheroids, viability
Test: Anticancer human tumor 922993-354-T-J3-PDC patient-derived endometrial carcinoma cell line growth inhibition [GQUAD]
Conditions: for IC50: curve of first compound; for viability, T/C: stronger effect = lower value
Text: DNA G-quadruplex Stabilizer Agents in Combinations in Complex Spheroids
A high-throughput screen of multi-cell type tumor spheroids was designed to identify active combinations of DNA G-quadruplex stabilizer agents and targeted small molecules. Complex spheroids include a stromal component modeled by human endothelial cells (HUVEC) and fibroblasts modeled by human mesenchymal stem cells (MSCs). The concentration ranges selected for each drug and investigational agent were based upon clinically achievable concentrations if the clinical Cmax of the agent was known.
Compounds. The drugs and investigational agents: pidnarulex (CX-5461; NSC782164), APTO-253 (NSC789042), BRACO-19 (NSC847499), peposertib (NSC802822), ceralasertib (NSC780249), elimusertib (NSC800525), camonsertib (NSC841442), AZD-1390 (NSC803789), olaparib (NSC753686), talazoparib (NSC767125), ART-558 (NSC835418), sotorasib (NSC818433), MRTX-1133 (NSC836407), SN-38 (NSC673596), topotecan (NSC609699), etoposide (NSC141540), doxorubicin (NSC123127), gemcitabine (NSC613327), 5-fluorouracil (NSC19893), paclitaxel (NSC125973), vemurafenib (NSC761431), panobinostat (NSC761190), R-306465 (JNJ-16241199; NSC773264), adavosertib (NSC754352), TP-3654 (NSC805149), carboplatin (NSC241240), KSQ-4279 (NSC840948), and staurosporine (NSC755774) were obtained from the National Cancer Institute (NCI) Developmental Therapeutics Program Chemical Repository (34). The FDA-approved anticancer drug set is available from the NCI Developmental Therapeutics Program. […] The stock solutions were prepared in dimethyl sulfoxide (DMSO, Sigma-Aldrich, St. Louis, MO, cat. D2650) at 800-fold the tested concentration and stored at -70 degrees C prior to their use. All drugs and investigational agents were tested over a range starting from a high concentration at or near the clinical Cmax and decreasing in half-log increments. If the clinical Cmax for an agent had not been determined, the highest concentration tested was 10 microM.
2.3 Cell Culture. All cells were maintained in an incubator at 37 degrees C and 5% CO2 with 95% humidity. The PDC lines were cultured according to standard operating procedures established by the NCI PDMR. All PDCs were thawed and cultured in Matrigel-coated flasks prepared with a working solution of 1X Ham's F-12 nutrient mix, without supplementation (Invitrogen, cat. 11765054), 100 U/mL penicillin-streptomycin (Invitrogen, cat. 15140122), and 2.5% Matrigel (Corning Inc., cat. 354248) for the first three passages. The 857933-349-R-J2-PDC line was cultured in 6C/Colon 1B media, which includes advanced DMEM/F-12 (Thermo Fisher Scientific, cat. 12634028), 10 mM HEPES (Thermo Fisher Scientific, cat. 15630080), 1X GlutaMAX supplement (Thermo Fisher Scientific, cat. 35050061), 0.1 mg/mL primocin (InvivoGen, cat. ant-pm-2), 10% defined fetal bovine serum, heat inactivated (HyClone Laboratories Inc., cat. SH30070.03HI), 50% L-WRN conditioned media (ATCC, cat. CRL-3276), 1.25 mM N-Acetyl-L-cysteine (Sigma-Aldrich, cat. A9165), 10 mM nicotinamide (Sigma-Aldrich, cat. N0636), 1X B-27 supplement (Thermo Fisher Scientific, cat. 17504044), 1X N-2 supplement (Thermo Fisher Scientific, cat. 17502048), 10 microM Y-27632 dihydrochloride (Tocris Bioscience, cat. 1254), and 50 ng/mL human EGF recombinant protein (Thermo Fisher Scientific, cat. PHG0311). The 485176-168-R4-J1-PDC line was cultured in Panc media, which includes all 6C/Colon 1B media components plus 100 ng/mL human FGF-10 (Thermo Fisher Scientific, cat. 100-26), 500 nM SB-431542 (Selleckchem, cat. S1067), and gastrin (Tocris, cat. 3006).
[…]
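Also: spheroids exposed to compounds for seven days.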
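For viability, T/C in this document: 100% = DMSO vehicle control viability.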

In the case of `CC(=O)O[C@H]1C(=O)[C@@]2(C)[C@H]([C@H](OC(=O)c3ccccc3)[C@]3(O)C[C@H](OC(=O)[C@H](O)[C@@H](NC(=O)c4ccccc4)c4ccccc4)C(C)=C1C3(C)C)[C@]1(OC(C)=O)CO[C@@H]1C[C@@H]2O` + CN(C)c1ccc(Nc2c3ccc(NC(=O)CCN4CCCC4)cc3nc3cc(NC(=O)CCN4CCCC4)ccc23)cc1, the IC50 (second compound 0.0316 µM) is reported as 7.96 µM, the IC50 (second compound 0.1 µM) is reported as 8.65 µM and the IC50 (second compound 0.316 µM) is reported as > 10 µM. The IC50 (second compound 1 µM) was > 10 µM, the IC50 (second compound 3.16 µM) was > 10 µM and the IC50 (second compound 10 µM) was > 10 µM. For the same compound, the viability, T/C (second compound 0.0316 µM, first compound 0.0316 µM) was 86.5%, the viability, T/C (second compound 0.0316 µM, first compound 0.1 µM) was 79% and the viability, T/C (second compound 0.0316 µM, first compound 0.316 µM) was 104%. It also gave a viability, T/C (second compound 0.0316 µM, first compound 1 µM) of 104%, a viability, T/C (second compound 0.0316 µM, first compound 3.16 µM) of 65.3% and a viability, T/C (second compound 0.0316 µM, first compound 10 µM) of 46.2%. It also gave a viability, T/C (second compound 0.1 µM, first compound 0.0316 µM) of 83.4%, a viability, T/C (second compound 0.1 µM, first compound 0.1 µM) of 90.2% and a viability, T/C (second compound 0.1 µM, first compound 0.316 µM) of 113%. The viability, T/C (second compound 0.1 µM, first compound 1 µM) was 101%, the viability, T/C (second compound 0.1 µM, first compound 3.16 µM) was 67.3% and the viability, T/C (second compound 0.1 µM, first compound 10 µM) was 47.5%. It also gave a viability, T/C (second compound 0.316 µM, first compound 0.0316 µM) of 73.5%, a viability, T/C (second compound 0.316 µM, first compound 0.1 µM) of 82.3% and a viability, T/C (second compound 0.316 µM, first compound 0.316 µM) of 116%. The viability, T/C (second compound 0.316 µM, first compound 1 µM) was 85.6%, the viability, T/C (second compound 0.316 µM, first compound 3.16 µM) was 72% and the viability, T/C (second compound 0.316 µM, first compound 10 µM) was 57.5%. For the same compound, the viability, T/C (second compound 1 µM, first compound 0.0316 µM) was 81.1%, the viability, T/C (second compound 1 µM, first compound 0.1 µM) was 99.5% and the viability, T/C (second compound 1 µM, first compound 0.316 µM) was 96.4%. The viability, T/C (second compound 1 µM, first compound 1 µM) was 69.5%, the viability, T/C (second compound 1 µM, first compound 3.16 µM) was 80% and the viability, T/C (second compound 1 µM, first compound 10 µM) was 51.8%. For the same compound, the viability, T/C (second compound 3.16 µM, first compound 0.0316 µM) was 93.7%, the viability, T/C (second compound 3.16 µM, first compound 0.1 µM) was 116% and the viability, T/C (second compound 3.16 µM, first compound 0.316 µM) was 103%. The viability, T/C (second compound 3.16 µM, first compound 1 µM) was 92.5%, the viability, T/C (second compound 3.16 µM, first compound 3.16 µM) was 82.6% and the viability, T/C (second compound 3.16 µM, first compound 10 µM) was 53.5%. The viability, T/C (second compound 10 µM, first compound 0.0316 µM) was 99.7%, the viability, T/C (second compound 10 µM, first compound 0.1 µM) was 122% and the viability, T/C (second compound 10 µM, first compound 0.316 µM) was 125%. It also gave a viability, T/C (second compound 10 µM, first compound 1 µM) of 130%, a viability, T/C (second compound 10 µM, first compound 3.16 µM) of 77.6% and a viability, T/C (second compound 10 µM, first compound 10 µM) of 67.1%.

— PubChem BioAssay AID2060489 (Molecular Pharmacology Branch, DTP, NCI, 2025)
